Consider 21 compounds from patent US7169786B2, “Isoxazoline derivatives as anti-depressants” (priority 2001, dated 2007).

For assay [1], the target named is T1, hα2A receptor (Homo sapiens, UniProt P08913).
T1 construct: expressed in transfected cells
T1 sequence (P08913 1-465): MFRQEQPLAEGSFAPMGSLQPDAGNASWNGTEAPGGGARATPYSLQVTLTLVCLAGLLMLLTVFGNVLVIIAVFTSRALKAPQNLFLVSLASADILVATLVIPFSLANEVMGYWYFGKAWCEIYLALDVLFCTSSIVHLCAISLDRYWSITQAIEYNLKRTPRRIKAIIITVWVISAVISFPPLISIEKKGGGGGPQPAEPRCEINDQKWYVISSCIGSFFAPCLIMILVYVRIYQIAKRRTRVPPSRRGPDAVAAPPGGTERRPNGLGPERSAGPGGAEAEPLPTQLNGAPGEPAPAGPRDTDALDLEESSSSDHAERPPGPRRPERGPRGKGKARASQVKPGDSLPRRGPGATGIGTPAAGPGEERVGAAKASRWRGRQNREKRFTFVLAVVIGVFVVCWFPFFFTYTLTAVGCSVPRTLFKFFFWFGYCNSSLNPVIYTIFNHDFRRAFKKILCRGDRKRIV
Description: Radioligand binding experiment for hα2A receptor ([3H]-raulwolscine). Conditions: membranes of CHO cells expressing human α2A receptor, [3H]raulwolscine 1 nM; for IC50: read-out: hα2A pIC50 (converted). As for the experimental part: (§1) The interaction of the compounds of Formula (I) with hα2-receptors and h5-HT-transporters was assessed in in vitro radioligand binding experiments. In general, a low concentration of a radioligand with a high binding affinity for a particular receptor or transporter is incubated with a sample of a tissue preparation enriched in a particular receptor or transporter or with a preparation of cells expressing cloned human receptors in a buffered medium. During the incubation, the radioligand binds to the receptor or transporter. When equilibrium of binding is reached, the receptor bound radioactivity is separated from the non-bound radioactivity, and the receptor- or transporter-bound activity is counted. The interaction of the test compounds with the receptor is assessed in competition binding experiments. Various concentrations of the test compound are added to the incubation mixture containing the receptor- or transporter preparation and the radioligand. The test compound in proportion to its binding affinity and its concentration inhibits binding of the radioligand. The radioligand used for hα2A, hα2B and hα2C receptor binding was [^3H]-raulwolscine and for the h5-HT transporter was [^3H]paroxetine.
(§2) CHO cells, stabile transfected with human adrenergic-α2A-, -α2B or α2C receptor cDNA, were cultured in Dulbecco's Modified Eagle's Medium (DMEM)/Nutrient mixture Ham's F12 (ratio 1:1)(Gibco, Gent-Belgium) supplemented with 10% heat inactivated fetal calf serum (Life Technologies, Merelbeke-Belgium) and antibiotics (100 IU/ml penicillin G, 100 μg/ml streptomycin sulphate, 110 μg/ml pyruvic acid and 100 μg/ml L-glutamine). One day before collection, cells were induced with 5 mM sodiumbutyrate. Upon 80–90% of confluence, cells were scraped in phosphate buffered saline without Ca^2+ and Mg^2+ and collected by centrifugation at 1500×g for 10 min. The cells were homogenised in Tris-HCl 50 mM using an Ultraturrax homogenizer and centrifuged for 10 min at 23,500×g. The pellet was washed once by resuspension and rehomogenization and the final pellet was resuspended in Tris-HCl, divided in 1 ml aliquots and stored at −70° C.
(§3) Membranes were thawed and re-homogenized in incubation buffer (glycylglycine 25 mM, pH 8.0). […] Filters were rinsed extensively with ice-cold rinsing buffer (Tris-HCl 50 mM pH 7.4). Filter-bound radioactivity was determined by scintillation counting in a Topcount (Packard, Meriden, Conn.) and results were expressed as counts per minute (cpm). Non-specific binding was determined in the presence of 1 μM oxymetazoline for hα2A- and hα2B receptors and 1 μM spiroxatrine for hα2C receptors.
(§4) Data from assays in the presence of compound were calculated as a percentage of total binding measured in the absence of test compound. Inhibition curves, plotting percent of total binding versus the log value of the concentration of the test compound, were automatically generated, and sigmoidal inhibition curves were fitted using non-linear regression. The pIC50 values of test compounds were derived from individual curves.

Assay [2] addresses T2, hα2C receptor (Homo sapiens, UniProt P18825).
T2 construct: expressed in transfected cells
T2 sequence (P18825 1-462): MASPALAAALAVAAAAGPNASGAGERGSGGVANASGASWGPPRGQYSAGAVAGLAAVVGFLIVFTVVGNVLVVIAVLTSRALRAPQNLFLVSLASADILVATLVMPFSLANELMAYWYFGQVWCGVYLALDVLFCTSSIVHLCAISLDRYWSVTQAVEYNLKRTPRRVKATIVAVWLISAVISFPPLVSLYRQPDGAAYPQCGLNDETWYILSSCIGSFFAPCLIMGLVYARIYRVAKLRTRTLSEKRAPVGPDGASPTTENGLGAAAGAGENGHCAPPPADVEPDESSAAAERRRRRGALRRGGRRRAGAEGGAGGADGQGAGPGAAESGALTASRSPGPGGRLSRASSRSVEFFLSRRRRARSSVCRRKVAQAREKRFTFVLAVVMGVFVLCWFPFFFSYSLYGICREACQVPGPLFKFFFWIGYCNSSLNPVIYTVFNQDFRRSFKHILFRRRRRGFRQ
The assay can be described thus: Radioligand binding experiment for hα2C receptor ([3H]-raulwolscine). Conditions: membranes of CHO cells expressing human α2C receptor, [3H]raulwolscine 1 nM; for IC50: read-out: hα2C pIC50 (converted). On the procedure: as §1, §2, §3, §4

Assay [3] has as its target T3, h5-HT transporter (Homo sapiens, UniProt P31645).
T3 construct: Human platelet membranes (Oceanix Biosciences Corporation, Hanover, Md., USA) were thawed; tissue Oceanix Biosciences Corporation, Hanover, Md., USA; host or cells: human platelet membranes
Description: Radioligand binding experiment for 5-HT transporter ([3H]paroxetine, human platelet membranes). Conditions: human platelet membranes, [3H]paroxetine 0.5 nM; for IC50: read-out: 5HTT pIC50 (converted). On the procedure: as §1
Human platelet membranes (Oceanix Biosciences Corporation, Hanover, Md., USA) were thawed, diluted in buffer (Tris-HCl 50 mM, 120 mM NaCl and 5 mM KCl) and quickly (max 3 s) homogenised with an Ultraturrax homogenizer. […] Filters were rinsed extensively with ice-cold buffer and radioactivity on the filters was counted in a Topcount liquid scintillation counter (Packard, Meriden, Conn.). Data were expressed as cpm. Imipramine (at 1 μM final concentration) was used to determine the non-specific binding.
as §4

The target of assay [4] is T4, hα2B receptor (Homo sapiens, UniProt P18089).
T4 construct: expressed in transfected cells
T4 sequence (P18089 1-450): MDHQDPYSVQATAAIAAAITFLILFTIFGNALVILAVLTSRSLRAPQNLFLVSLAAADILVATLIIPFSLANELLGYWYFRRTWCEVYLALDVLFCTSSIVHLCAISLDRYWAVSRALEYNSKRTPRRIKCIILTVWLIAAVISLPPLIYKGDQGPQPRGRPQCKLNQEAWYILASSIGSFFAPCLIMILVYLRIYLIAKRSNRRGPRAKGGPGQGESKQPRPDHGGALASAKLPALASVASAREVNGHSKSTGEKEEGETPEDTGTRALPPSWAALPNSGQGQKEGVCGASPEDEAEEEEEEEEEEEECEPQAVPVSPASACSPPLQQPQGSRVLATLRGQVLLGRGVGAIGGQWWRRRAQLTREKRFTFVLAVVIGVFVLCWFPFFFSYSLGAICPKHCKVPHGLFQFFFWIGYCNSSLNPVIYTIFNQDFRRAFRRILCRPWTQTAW
The assay can be described thus: Radioligand binding experiment for hα2B receptor ([3H]-raulwolscine). Conditions: membranes of CHO cells expressing human α2B receptor; [3H]raulwolscine 1 nM; read-out: hα2B pIC50 (converted). On the procedure: as §1, §2, §3, §4

The structures appear in SMILES notation.

T3 sequence (P31645 whole entry): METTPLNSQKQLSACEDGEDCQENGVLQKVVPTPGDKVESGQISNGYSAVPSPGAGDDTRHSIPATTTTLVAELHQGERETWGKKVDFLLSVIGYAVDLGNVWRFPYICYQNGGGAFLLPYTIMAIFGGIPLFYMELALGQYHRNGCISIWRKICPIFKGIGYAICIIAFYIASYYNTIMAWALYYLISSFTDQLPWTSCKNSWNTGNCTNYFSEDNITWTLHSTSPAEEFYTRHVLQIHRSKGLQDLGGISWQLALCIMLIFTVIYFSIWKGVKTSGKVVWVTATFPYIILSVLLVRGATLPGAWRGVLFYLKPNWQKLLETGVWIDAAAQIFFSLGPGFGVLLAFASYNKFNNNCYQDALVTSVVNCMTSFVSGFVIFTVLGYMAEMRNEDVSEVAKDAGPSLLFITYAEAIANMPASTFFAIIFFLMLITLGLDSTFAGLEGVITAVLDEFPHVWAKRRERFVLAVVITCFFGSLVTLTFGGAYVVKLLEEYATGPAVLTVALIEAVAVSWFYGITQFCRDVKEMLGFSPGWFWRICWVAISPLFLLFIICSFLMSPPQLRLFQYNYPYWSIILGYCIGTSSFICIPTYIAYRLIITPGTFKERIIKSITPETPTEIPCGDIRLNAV

Turning to `COc1cc2c(cc1SC)OCC1C2=NOC1CN1CCN(CC(C)=Cc2ccccc2)CC1.O=C(O)C(F)(F)F` (racemic) [Compound 350], the “hα2A pIC50” value in assay [1] is 8.39. Moreover, the “hα2C pIC50” value in assay [2] worked out at 8.68. Further, the “5HTT pIC50” value in assay [3] was found to be 7.69.

As for `COc1cc2c(cc1OC)C1=NOC(CN3CCN(C/C=C(\C)c4ccsc4)CC3)C1CO2` (single isomer, unassigned) [Compound 323], the IC50 in assay [1] is 6.17 nM; in assay [2] it was 9.55 nM; in assay [3], 15.1 nM.

On to `COc1cc2c(cc1OC(C)=O)OCC1C2=NOC1CN1CCN(C/C(C)=C/c2cccc(F)c2)CC1` (single isomer, unassigned) [Compound 334], for which the IC50 was 2.69 nM in assay [1] and 2.29 nM in assay [2].

`COc1cc2c(cc1OCC1CC1)OCC1C2=NOC1CN1CCN(C/C(C)=C/c2ccc(F)cc2)CC1` (single isomer, unassigned) [Compound 337]: the IC50 in assay [1] was 20.9 nM.

For the compound `COc1cc2c(cc1OCCN(C)C)OCC1C2=NOC1CN1CCN(C/C(C)=C/c2ccccc2)CC1` (single isomer, unassigned) [Compound 341], the figures for the IC50 in assay [1], in assay [2] and in assay [3] were 3.63 nM, 1.23 nM and 2.19 nM, respectively.

For `COCCOCOc1cc2c(cc1OC)C1=NOC(CN3CCN(C/C(C)=C/c4ccccc4)CC3)C1CO2` (single isomer, unassigned) [Compound 342], the values for the IC50 in assay [1], in assay [2] and in assay [3] were 8.51 nM, 0.162 nM and 17.4 nM, respectively.

Take `COC(=O)Oc1cc2c(cc1OC)C1=NOC(CN3CCN(C/C(C)=C/c4ccccc4)CC3)C1CO2` (single isomer, unassigned) [Compound 343]: the IC50 is 2.34 nM in assay [1], 1.23 nM in assay [2] and 37.2 nM in assay [3].

For `C=CCOc1cc2c(cc1OC)C1=NOC(CN3CCN(CC(C)=Cc4ccccc4)CC3)C1CO2` (single isomer, unassigned) [Compound 344], the “hα2A pIC50” value in assay [1] worked out at 8.45. Further, in assay [2], the “hα2C pIC50” value is listed as 8.68. The “5HTT pIC50” value in assay [3] is on record as 8.00.

As for `COc1cc2c(cc1OS(C)(=O)=O)OCC1C2=NOC1CN1CCN(CC(C)=Cc2ccccc2)CC1` (single isomer, unassigned) [Compound 346], the “hα2A pIC50” value in assay [1] is listed as 8.65. Also, the “hα2C pIC50” value in assay [2] turned out to be 8.91. Besides, the “5HTT pIC50” value in assay [3] came out at 8.37.

Regarding `COc1cc2c(cc1OC(C)=O)OCC1C2=NOC1CN1CCN(C/C=C(\C)c2ccccc2)CC1` (single isomer, unassigned) [Compound 358], the IC50 is 1.48 nM in assay [1], 3.24 nM in assay [2] and 37.2 nM in assay [3].

In the case of `COc1cc2c(cc1OC)C1=NOC(CN3CCN(C/C=C(\C)c4ccccc4F)CC3)C1CO2` (single isomer, unassigned) [Compound 359], the IC50 is 7.94 nM in assay [1], 3.47 nM in assay [2] and 44.7 nM in assay [3].

On to `COc1cc2c(cc1OC)C1=NOC(CN3CCN(C/C=C(\C)c4ccc(F)cc4)CC3)C1CO2` (single isomer, unassigned) [Compound 361], for which the IC50 is 12.6 nM in assay [1], 3.09 nM in assay [2] and 4.17 nM in assay [3].

On to `COc1cc2c(cc1OC)C1=NOC(CN3CCN(C/C=C(\C)c4cccc(Cl)c4)CC3)C1CO2` (single isomer, unassigned) [Compound 366], for which the IC50 in assay [1] was 12.9 nM; in assay [2] it was 3.31 nM; in assay [3] it was 11.5 nM.

`COc1cc2c(cc1OC)C1=NOC(CN3CCN(Cc4cccc(Br)c4)CC3)C1CO2` (centres unmarked) [Compound 90]: the IC50 in assay [1] is 195 nM; in assay [3], 302 nM.

For the compound `COc1cc2c(cc1OC)C1=NOC(CN3CCN(Cc4cccn4C)CC3)C1CO2` (centres unmarked) [Compound 291], the IC50 in assay [1] was 851 nM; in assay [2] it was 1000 nM; in assay [3], 1000 nM.

For the compound `COc1cc2c(cc1OC)C1=NOC(CN3CCN(CCC(=O)c4ccccc4)CC3)C1CO2` (centres unmarked) [Compound 309], the IC50 in assay [1] was 50.1 nM; in assay [2], 58.9 nM; in assay [3] it was 389 nM.

As for `COc1cc2c(cc1OC)C1=NOC(CN3CCN(CCC(O)c4ccccc4)CC3)C1CO2` (centres unmarked) [Compound 310], the IC50 was 214 nM in assay [1], 64.6 nM in assay [2] and 871 nM in assay [3].

For `COc1cc2c(cc1OCCOC(C)=O)C1=NOC(CN3CCN(CC(C)=Cc4ccccc4)CC3)C1CO2` (centres unmarked) [Compound 332], the values for the IC50 in assay [1], in assay [2] and in assay [3] were 4.47 nM, 0.603 nM and 58.9 nM, respectively.

Take `COc1ccc2c(c1)C1=NOC(CN3CCN(CC(C)=Cc4ccccc4)CC3)C1CO2` (centres unmarked) [Compound 348]: the IC50 in assay [1] is 1.2 nM; in assay [2], 1.32 nM; in assay [3], 17.8 nM.

Turning to `COc1cc2c(cc1OC(C)=O)OCC1C2=NOC1CN1CCN(Cc2ccc3ccccc3c2)CC1` (centres unmarked) [Compound 355], the values for the IC50 in assay [1], in assay [2] and in assay [3] were 5.13 nM, 7.08 nM and 13.5 nM, respectively.

For the compound `COc1cc2c(cc1OC)C1=NOC(CN3CCN(CC=C(C)c4ccccc4)CC3)C1CN2` (centres unmarked) [Compound 379], the IC50 in assay [4] is 19.5 nM; in assay [2] it was 40.7 nM; in assay [3], 34.7 nM.
